Experimental data from patent US20070092925A1, “Method of treating skin by delivering specific protein stabilizers/protectors to skin proteins and methods of selecting said stabilizers” (Conopco, Inc., d/b/a UNILEVER, priority 2005, published 2007).
Entries after “also recorded” stand apart in the source; their conditions may differ. Values belong to the compound of their own block, whether it stands above or below them.

Columns and labels:
[1] = target: T1, trypsin from bovine pancreas (Bos taurus, UniProt P00760); test: trypsin autolysis followed by fluorescence spectroscopy (ratio R versus time, FIG. 2); format: biochemical; conditions: 0.1 M TRIS buffer pH 7.5, compared with water
T1 construct: purchased Sigma; host or cells: bovine pancreas
T1 sequence (P00760 24-246): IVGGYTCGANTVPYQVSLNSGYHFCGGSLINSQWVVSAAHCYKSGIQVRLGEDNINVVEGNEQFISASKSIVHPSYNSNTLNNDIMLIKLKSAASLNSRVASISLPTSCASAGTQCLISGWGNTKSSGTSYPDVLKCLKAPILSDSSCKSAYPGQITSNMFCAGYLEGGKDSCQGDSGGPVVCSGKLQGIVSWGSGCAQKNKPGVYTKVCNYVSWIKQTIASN
Excerpt: (§1) The process of serine protease (e.g., trypsin) autolysis can be followed by using fluorescence spectroscopy. […] Consequently, the autolysis of trypsin and subsequent unfolding is accompanied by spectral changes that can be detected by obtaining fluorescence spectra at various time points after preparing a fresh solution of trypsin.
(§2) The iso-emissive points (fluorescence intensity independent of time) at 305 nm and 360 nm are typical of a situation where one fluorescent component (native protein) is the source of the other fluorescent component(s) (denatured protein and cleaved fragments). Applicants quantified the change in the trypsin spectrum by taking a ratio, R, of the area between 320 nm and 330 nm and the area between 380 nm and 400 nm: [formula]
(§3) The numerator represents the relative amount of native protein in the sample and the denominator represents relative amount of denatured protein and cleaved fragments. R therefore is a measure of how far the autolysis process has progressed.
(§4) Protocol—Fresh solutions of trypsin (2.5 mg/ml) were prepared by mixing the appropriate amount of solid trypsin from bovine pancreas (Sigma) with appropriate amounts of buffer solution (1M, pH 7.5; VWR), water, and protein stabilizing compound (pyrollidone carboxylic acid—Sigma Ultrapure; trimethylamine N-oxide—Fluka Purum; glycerin—J.T. Baker; 1-Propanaminium, 2,3-dihydroxy-N,N,N-trimethyl-, chloride—synthesized and purified in house), and/or protein destabilizing compound (urea—J.T. Baker Ultrapure Bioreagent); sodium dodecyl sulfate—ICN Ultrapure). All chemicals were used as supplied. Within minutes of dissolving the solid trypsin the solution was transferred into a quartz fluorescence cuvette and placed inside a Perkin Elmer LS 50 B fluorescence spectrometer. Fluorescence spectra were subsequently measured, either every 5 minutes or every 10 minutes. The excitation wavelength was 280 nm.
A seen in FIG. 2, applicants plotted trypsin autolysis as followed by fluorescence spectroscopy in various media with 0.1 M TRIS buffer pH 7.5. These media include: 0.5 M PCA, i.e., pyrollidone carboxylic acid (closed triangles); 1 M TMAO (closed diamonds); 1 M glycerol (closed circles); 1M 1-propanaminium, 2,3-dihydroxy-N,N,N-trimethyl-,chloride (crosses); water (closed squares); 1 M urea (open triangles); and 0.5 mM SDS, i.e., sodium dodecyl sulphate (open circles).
The ability of various compounds or combinations of compounds to increase or depress the rate of trypsin autolysis can be compared by plotting R as a function of time as is shown, for example, in FIG. 2.

[2] = target: T1, trypsin from bovine pancreas; test: trypsin autolysis followed by fluorescence spectroscopy in the presence of the denaturant SDS (FIG. 3); format: biochemical
Excerpt: as §1, §2, §3, §4
For reference purposes, also shown are autolysis traces in the presence of 0.5 mM SDS without any protein stabilizer (open squares) and without any SDS or protein stabilizer (closed squares).

[3] = 1.0 M stabilizer plus 0.5 mM SDS

Structure (SMILES): NC(N)=O [urea]
rate of trypsin autolysis (R as a function of time) ([1]; […] compound): significant increase in the rate of trypsin hydrolysis

Structure (SMILES): CCCCCCCCCCCCOS(=O)(=O)[O-].[Na+] [SDS, sodium dodecyl sulfate]
rate of trypsin autolysis (R as a function of time) ([1]; 0.5 mM compound): significant increase in the rate of trypsin hydrolysis

Structure (SMILES): O=C1CC[C@@H](C(=O)O)N1 [PCA, pyrollidone carboxylic acid]
rate of trypsin autolysis in the presence of SDS ([2]; 0.5 M stabilizer plus 0.5 mM SDS): able to “protect” proteins against a denaturing force; also recorded: still slower than in the absence of both SDS and a protein stabilizer
rate of trypsin autolysis (R as a function of time) ([1]; 0.5 M compound): virtual absence of autolysis; also recorded: by far the strongest ability of any of the compounds tested to stabilize trypsin

rate of trypsin autolysis (R as a function of time) ([1]; […] compound): exceed that of both glycerol and TMAO
Structure (SMILES): C[N+](C)(C)CC(O)CO.[Cl-] (stereo not drawn) [1-Propanaminium, 2,3-dihydroxy-N,N,N-trimethyl-, chloride]

Structure (SMILES): C[N+](C)(C)[O-] [TMAO, trimethylamine N-oxide]
rate of trypsin autolysis in the presence of SDS [2, 3]: able to “protect” proteins against a denaturing force; also recorded: still slower than in the absence of both SDS and a protein stabilizer
rate of trypsin autolysis (R as a function of time) ([1]; […] compound): exceeds glycerol in its ability to stabilize trypsin against autolysis

Structure (SMILES): OCC(O)CO [glycerol]
rate of trypsin autolysis in the presence of SDS [2, 3]: able to “protect” proteins against a denaturing force
rate of trypsin autolysis (R as a function of time) ([1]; […] compound): significantly reduces the rate of trypsin autolysis
